Key:
A549 cells = conditions: cited from earlier work
A549 = type: cell-based; conditions: 48 hour incubation, unit not given (tested from 100 μM); for GI50: read-out: GI50 (dose inhibiting 50% cell growth); for CC50: read-out: LC50 (dose killing 50% of initially seeded cells)
Method: (§1) Anticancer activity tests were made on colon (HCT116, HT29, HCT15), lung (A549, H460) and ovarian (OVCARS, OVCAR3, NCI-ADRRES) cancer cell lines in vitro. All cell lines were obtained from American Type Culture Collection (Manassas, Va., USA) or American National Cancer Institute (NCl, USA). All cell lines were grown in RPMI1640 medium supplemented with 25 mM HEPES, 2 mM L-Glutamine, 5-10% fetal calf serum and antibiotics at 37° C. in a humidified 5% CO2 atmosphere.
(§2) The effect of the aforementioned compound on the selected cell lines indicated above was tested with Sulforhodamine B (SRB) assay that is also used by American National Cancer Institute. 100 μL of cancer cells were seeded at densities between 5.000-40.000 per well of a 96 well plate. The cells were incubated for 24 h for adaptation. […] The tested complex was dissolved in DMSO at 100 μM initial concentration and diluted to obtain 10 different concentrations as 1:2, 1:4 or 1:10. Every different concentration was analyzed in triplicates and in two independent experiments. The cells were fixed with 50% (w/v) ice-cold TCA in situ after 48 hour incubation. SRB dye bound to the cells was dissolved by unbuffered 10 mM Tris solution and absorbance values were measured at 530 nm in an ELISA microplate reader. Percentages for cell growth that were calculated from absorbance measurements (initial: TZ, control: C, complex at different concentrations: Ti) are as described below:
(§3) Gl50 (dose inhibiting 50% cell growth)=[Ti−Tz)/(C-Tz)]×100=50
(§4) TGI (total growth inhibition): Ti=Tz
(§5) LC50 (dose killing 50% of initially seeded cells)=[(Ti−Tz)/Tz]×100=−50

H460 = type: cell-based; conditions: 48 hour incubation, unit not given (tested from 100 μM); for GI50: read-out: GI50 (dose inhibiting 50% cell growth); for CC50: read-out: LC50 (dose killing 50% of initially seeded cells)
Method: as §1, §2, §3, §4, §5

HCT116 = type: cell-based; conditions: for TGI (total growth inhibition) / GI50 / CC50: 48 hour incubation, unit not given (tested from 100 μM); for GI50: read-out: GI50 (dose inhibiting 50% cell growth); for CC50: read-out: LC50 (dose killing 50% of initially seeded cells)
Method: as §1, §2, §3, §4, §5

HCT15 = type: cell-based; conditions: for TGI (total growth inhibition) / GI50 / CC50: 48 hour incubation, unit not given (tested from 100 μM); for GI50: read-out: GI50 (dose inhibiting 50% cell growth); for CC50: read-out: LC50 (dose killing 50% of initially seeded cells)
Method: as §1, §2, §3, §4, §5

HT29 = type: cell-based; conditions: for TGI (total growth inhibition) / GI50 / CC50: 48 hour incubation, unit not given (tested from 100 μM); for GI50: read-out: GI50 (dose inhibiting 50% cell growth); for CC50: read-out: LC50 (dose killing 50% of initially seeded cells)
Method: as §1, §2, §3, §4, §5

NCI-ADRRES = type: cell-based; conditions: 48 hour incubation, unit not given (tested from 100 μM); for GI50: read-out: GI50 (dose inhibiting 50% cell growth); for CC50: read-out: LC50 (dose killing 50% of initially seeded cells)
Method: as §1, §2, §3, §4, §5

OVCAR3 = type: cell-based; conditions: 48 hour incubation, unit not given (tested from 100 μM); for GI50: read-out: GI50 (dose inhibiting 50% cell growth)
Method: as §1, §2, §3, §4, §5

OVCAR5 = type: cell-based; conditions: 48 hour incubation, unit not given (tested from 100 μM); for GI50: read-out: GI50 (dose inhibiting 50% cell growth); for CC50: read-out: LC50 (dose killing 50% of initially seeded cells)
Method: as §1, §2, §3, §4, §5

HCT116 cancer cells = assay: HCT116 xenograft study in NOD/SCID mice; type: in vivo; parameters: key to tumor size: tumor volume in mm^3, (a×b²)/2 from caliper length and width; conditions: for tumor size / ΔT/ΔC % value: HCT116 xenograft, complex 40 mg/kg, oxaliplatin 5 mg/kg; for tumor size: no unit in table (method gives tumor volume in mm^3); for ΔT/ΔC % value: day 22, highly active compounds have values less than 42%
Method: Xenograft studies were made by using HCT116 colon cancer cell lines after observing that the subject of the invention, palladium(II) complex, is especially effective on colon cancer cells. […] To obtain the xenografts, approximately 10^6 cells from exponentially growing HCT116 cells were intradermally injected in the axillae of 6-8 weeks old NOD/SCID mice by using the English double sided trocar implantation method. Two separate injections were made to each mouse. Two tumor inocula were added to each mouse in order to produce one tumor load for each mouse. […] These positive effects are the beneficial aspects of the English system.
Treatment was started in randomly chosen animal groups when the tumor volume reached 100-200 mm^3. […] The treatment was performed in 5 days of application and 2 days of resting periods. Tumor volume was calculated from [(axb^2)/2] formula. In this formula, a and b are tumor length and width which are measured by vernier caliper. Measurements were repeated twice weekly. Treated animals received a single dose from the drugs. Apart from tumor volume, ΔT/ΔC % values were calculated from ΔT═T−D0 and ΔC═C−D0 equations. D0 is the mean tumor volume at the beginning of the treatment, T is the mean tumor volume of treated mice and C is the mean tumor volume of untreated (not injected with complex) mice which is used as a control. […] Weight loss, neurological disorders and changes in diet were recorded as indication of toxicity (side effects). The experiments were terminated when the tumor volume reached approximately to 1000-1500 mm^3.

[1] = Day 19 (value equal in all groups, start of treatment)
[2] = versus cisplatin, oxaliplatin and carboplatin

O.O.O=C1[N-]S(=O)(=O)c2ccccc21.[Cl][Pd-2]12[n+]3ccccc3C[NH+]1Cc1cccc[n+]12 [[Pd(bpma)Cl](sac)·2H2O]
cytotoxic effect (A549 cells): showed a cytotoxic effect on A549 cells, similar to cisplatin

O=C1[O][Pt]2([NH][C@@H]3CCCC[C@H]3[NH]2)[O]C1=O [Oxaliplatin, oxaliplatin]
TGI (total growth inhibition) (A549): 58.2
GI50 (A549): 4.4 µM
TGI (total growth inhibition) (H460): 95.6
GI50 (H460): 6.8 µM
TGI (total growth inhibition) (HCT116): 64.1
GI50 (HCT116): 0.9 µM
TGI (total growth inhibition) (HCT15): 17.2
GI50 (HCT15): 6 µM
TGI (total growth inhibition) (HT29): 56.5
GI50 (HT29): 6.3 µM
TGI (total growth inhibition) (NCI-ADRRES): >100
GI50 (NCI-ADRRES): 24.8 µM
TGI (total growth inhibition) (OVCAR3): >100
GI50 (OVCAR3): 9.1 µM
TGI (total growth inhibition) (OVCAR5): >100
GI50 (OVCAR5): 50.7 µM
tumor size (HCT116 cancer cells; [1]): 245.96
tumor size (HCT116 cancer cells; Day 22): 361.82 ± 153.96
tumor size (HCT116 cancer cells; Day 26): 538.00 ± 203.51
tumor size (HCT116 cancer cells; Day 29): 622.29 ± 152.76
tumor size (HCT116 cancer cells; Day 33): 847.06 ± 176.45
ΔT/ΔC % value (HCT116 cancer cells): +70.60%

N.N.O=C([O-])C1(C(=O)[O-])CCC1.[Pt+2] [Carboplatin, carboplatin]
TGI (total growth inhibition) (A549): >100
GI50 (A549): > 100 µM
CC50 (A549): > 100 µM
TGI (total growth inhibition) (H460): >100
GI50 (H460): > 100 µM
CC50 (H460): > 100 µM
TGI (total growth inhibition) (HCT116): >100
GI50 (HCT116): > 100 µM
CC50 (HCT116): > 100 µM
TGI (total growth inhibition) (HCT15): >100
GI50 (HCT15): > 100 µM
CC50 (HCT15): > 100 µM
TGI (total growth inhibition) (HT29): >100
GI50 (HT29): > 100 µM
CC50 (HT29): > 100 µM
TGI (total growth inhibition) (NCI-ADRRES): >100
GI50 (NCI-ADRRES): > 100 µM
CC50 (NCI-ADRRES): > 100 µM
TGI (total growth inhibition) (OVCAR3): >100
GI50 (OVCAR3): > 100 µM
TGI (total growth inhibition) (OVCAR5): >100
GI50 (OVCAR5): > 100 µM
CC50 (OVCAR5): > 100 µM

CCC1(CC)C(=O)NC(=O)[N]([Pd-2]23[n+]4ccccc4C[NH+]2Cc2cccc[n+]23)C1=O.O.[Cl-] [[Pd(bpma)(barb)]Cl•H2O, [Pd(bpma)(barb)]Cl·H2O]
TGI (total growth inhibition) (A549): 80.1
GI50 (A549): 43.1 µM
CC50 (A549): > 100 µM
TGI (total growth inhibition) (H460): 75.9
GI50 (H460): 44.4 µM
CC50 (H460): > 100 µM
TGI (total growth inhibition) (HCT116): 9.1
GI50 (HCT116): 4.9 µM
CC50 (HCT116): 82.4 µM
cytotoxic effect compared to anticancer drugs (HCT116; [2]): selectively effective
TGI (total growth inhibition) (HCT15): 9.9
GI50 (HCT15): 6.8 µM
CC50 (HCT15): 89.1 µM
cytotoxic effect compared to anticancer drugs (HCT15; [2]): selectively effective
TGI (total growth inhibition) (HT29): 6.6
GI50 (HT29): 3 µM
CC50 (HT29): 22 µM
cytotoxic effect compared to anticancer drugs (HT29; [2]): selectively effective
TGI (total growth inhibition) (NCI-ADRRES): 10.0
GI50 (NCI-ADRRES): 5.6 µM
CC50 (NCI-ADRRES): > 100 µM
TGI (total growth inhibition) (OVCAR3): 25.2
GI50 (OVCAR3): 6.5 µM
TGI (total growth inhibition) (OVCAR5): 63.5
GI50 (OVCAR5): 40 µM
CC50 (OVCAR5): 87 µM
tumor size (HCT116 cancer cells; [1]): 245.96
tumor size (HCT116 cancer cells; Day 22): 195.61 ± 151.45
tumor size (HCT116 cancer cells; Day 26): 373.88 ± 157.42
tumor size (HCT116 cancer cells; Day 29): 577.38 ± 157.37
tumor size (HCT116 cancer cells; Day 33): 782.22 ± 228.55
decrease of tumor volume compared to oxaliplatin (HCT116 cancer cells; all time points of measurement, complex 40 mg/kg vs oxaliplatin 5 mg/kg): decreased the tumor volume more effectively than oxaliplatin in all time points of measurement
ΔT/ΔC % value (HCT116 cancer cells): −29.88%

N.N.[Cl][Pt][Cl] [Cisplatin, cisplatin]
TGI (total growth inhibition) (A549): 55.1
GI50 (A549): 6.6 µM
TGI (total growth inhibition) (H460): 50.3
GI50 (H460): 8.9 µM
TGI (total growth inhibition) (HCT116): 90.2
GI50 (HCT116): 24.8 µM
TGI (total growth inhibition) (HCT15): 85.9
GI50 (HCT15): 57.3 µM
TGI (total growth inhibition) (HT29): 92.0
GI50 (HT29): 29.8 µM
TGI (total growth inhibition) (NCI-ADRRES): >100
GI50 (NCI-ADRRES): 9.9 µM
TGI (total growth inhibition) (OVCAR3): >100
GI50 (OVCAR3): 34.3 µM
TGI (total growth inhibition) (OVCAR5): >100
GI50 (OVCAR5): 57.8 µM

From patent US9839643B2, “Palladium complex with high anticancer activity” (ULUDAG ÜNIVERSITESI TTO, priority 2014, dated 2017)
